Measurements from ChEMBL document CHEMBL5223095, “Structure activity relationship of N-1 substituted 1,5-naphthyrid-2-one analogs of oxabicyclooctane-linked novel bacterial topoisomerase inhibitors as broad-spectrum antibacterial agents (Part-9)” (Bioorg Med Chem Lett, 2022).
Values after ≈ are worked out from the molar mass of the structure shown.

Legend:
Type in all cases: functional
[1] = system: Streptococcus pneumoniae; assay: Antibacterial activity against Streptococcus pneumoniae IID553 assessed as bacterial growth inhibition by CLSI protocol agar-based assay
[2] = system: Escherichia coli; assay: Antibacterial activity against Escherichia coli ATCC 25922 assessed as bacterial growth inhibition by CLSI protocol agar-based assay
[3] = system: Enterococcus faecium; assay: Antibacterial activity against Vanomycin-resistant Enterococcus faecium assessed as bacterial growth inhibition by CLSI protocol agar-based assay
[4] = system: Staphylococcus aureus; assay: Antibacterial activity against methicillin-resistant Staphylococcus aureus OITII-971 assessed as bacterial growth inhibition by CLSI protocol agar-based assay
[5] = system: Pseudomonas aeruginosa; assay: Antibacterial activity against Pseudomonas aeruginosa PAO1 assessed as bacterial growth inhibition by CLSI protocol agar-based assay
[6] = system: Acinetobacter baumannii; assay: Antibacterial activity against Acinetobacter baumannii IID876 assessed as bacterial growth inhibition by CLSI protocol agar-based assay

SMILES	MIC [1]	MIC [2]	MIC [3]	MIC [4]	MIC [5]	MIC [6]
O=c1ccc2ncc(F)c(CCC34CCC(NCc5ccc6nsnc6c5)(CC3)CO4)c2n1CCO	1 µg/mL (≈ 1.96 µM)	32 µg/mL (≈ 62.8 µM)	8 µg/mL (≈ 15.7 µM)	0.125 µg/mL (≈ 0.245 µM)	> 64 µg/mL	4 µg/mL (≈ 7.85 µM)
O=C1COc2ccc(CNC34CCC(CCc5ccnc6ccc(=O)n(CCO)c56)(CC3)OC4)nc2N1	4 µg/mL (≈ 7.91 µM)	8 µg/mL (≈ 15.8 µM)	16 µg/mL (≈ 31.6 µM)	2 µg/mL (≈ 3.96 µM)	32 µg/mL (≈ 63.3 µM)	8 µg/mL (≈ 15.8 µM)
CN(C)C(=O)Cn1c(=O)ccc2ncc(F)c(CCC34CCC(NCc5ccc6c(n5)NC(=O)CO6)(CC3)CO4)c21	4 µg/mL (≈ 7.08 µM)	32 µg/mL (≈ 56.7 µM)	32 µg/mL (≈ 56.7 µM)	1 µg/mL (≈ 1.77 µM)	64 µg/mL (≈ 113 µM)	8 µg/mL (≈ 14.2 µM)
NCCn1c(=O)ccc2ncc(F)c(CCC34CCC(NCc5ccc6c(n5)NC(=O)CO6)(CC3)CO4)c21	1 µg/mL (≈ 1.91 µM)	1 µg/mL (≈ 1.91 µM)	8 µg/mL (≈ 15.3 µM)	1 µg/mL (≈ 1.91 µM)	2 µg/mL (≈ 3.83 µM)	16 µg/mL (≈ 30.6 µM)
N#Cc1cnc2ccc(=O)n(CCO)c2c1CCC12CCC(NCc3ccc4c(n3)NC(=O)CO4)(CC1)CO2	1 µg/mL (≈ 1.88 µM)	4 µg/mL (≈ 7.54 µM)	4 µg/mL (≈ 7.54 µM)	0.125 µg/mL (≈ 0.236 µM)	16 µg/mL (≈ 30.2 µM)	1 µg/mL (≈ 1.88 µM)
C[C@@H]1CCc2cc(CNC34CCC(CCc5c(F)cnc6ccc(=O)n(CCO)c56)(CC3)OC4)ncc2O1	1 µg/mL (≈ 1.91 µM)	> 64 µg/mL	32 µg/mL (≈ 61.2 µM)	1 µg/mL (≈ 1.91 µM)	> 64 µg/mL	64 µg/mL (≈ 122 µM)
O=c1ccc2ncc(F)c(CCC34CCC(NCc5cc6c(cn5)OCCO6)(CC3)CO4)c2n1CCO	0.5 µg/mL (≈ 0.979 µM)	16 µg/mL (≈ 31.3 µM)	2 µg/mL (≈ 3.92 µM)	0.125 µg/mL (≈ 0.245 µM)	> 16 µg/mL	4 µg/mL (≈ 7.83 µM)
CNC(=O)Cn1c(=O)ccc2ncc(F)c(CCC34CCC(NCc5ccc6c(n5)NC(=O)CO6)(CC3)CO4)c21	1 µg/mL (≈ 1.82 µM)	32 µg/mL (≈ 58.1 µM)	16 µg/mL (≈ 29.1 µM)	4 µg/mL (≈ 7.26 µM)	32 µg/mL (≈ 58.1 µM)	64 µg/mL (≈ 116 µM)
COc1ccc2nc(CNC34CCC(CCc5c(F)cnc6ccc(=O)n(CCO)c56)(CC3)OC4)c(F)cc2n1	> 16 µg/mL	> 16 µg/mL	> 16 µg/mL	> 16 µg/mL	> 16 µg/mL	> 16 µg/mL
C[C@H]1CCc2cc(CNC34CCC(CCc5c(F)cnc6ccc(=O)n(CCO)c56)(CC3)OC4)ncc2O1	2 µg/mL (≈ 3.83 µM)	64 µg/mL (≈ 122 µM)	32 µg/mL (≈ 61.2 µM)	1 µg/mL (≈ 1.91 µM)	> 64 µg/mL	16 µg/mL (≈ 30.6 µM)
O=c1ccc2nc(CNC34CCC(CCc5c(F)cnc6ccc(=O)n(CCO)c56)(CC3)OC4)c(F)cc2[nH]1	> 16 µg/mL	> 16 µg/mL	> 16 µg/mL	> 16 µg/mL	> 16 µg/mL	> 16 µg/mL
O=c1ccc2ncc(F)c(CCC34CCC(NCc5ccc6nonc6c5)(CC3)CO4)c2n1CCO	32 µg/mL (≈ 64.8 µM)	> 64 µg/mL	64 µg/mL (≈ 130 µM)	2 µg/mL (≈ 4.05 µM)	> 64 µg/mL	64 µg/mL (≈ 130 µM)
COc1ccc2nc(CNC34CCC(CCc5c(F)cnc6ccc(=O)n(CCO)c56)(CC3)OC4)c(F)c(C)c2n1	32 µg/mL (≈ 56.6 µM)	32 µg/mL (≈ 56.6 µM)	32 µg/mL (≈ 56.6 µM)	32 µg/mL (≈ 56.6 µM)	32 µg/mL (≈ 56.6 µM)	32 µg/mL (≈ 56.6 µM)
CS(=O)(=O)NCCn1c(=O)ccc2ncc(F)c(CCC34CCC(NCc5ccc6c(n5)NC(=O)CO6)(CC3)CO4)c21	1 µg/mL (≈ 1.66 µM)	16 µg/mL (≈ 26.6 µM)	8 µg/mL (≈ 13.3 µM)	0.5 µg/mL (≈ 0.832 µM)	32 µg/mL (≈ 53.3 µM)	16 µg/mL (≈ 26.6 µM)
NC(=O)Cn1c(=O)ccc2ncc(F)c(CCC34CCC(NCc5ccc6c(n5)NC(=O)CO6)(CC3)CO4)c21	4 µg/mL (≈ 7.45 µM)	32 µg/mL (≈ 59.6 µM)	64 µg/mL (≈ 119 µM)	4 µg/mL (≈ 7.45 µM)	16 µg/mL (≈ 29.8 µM)	64 µg/mL (≈ 119 µM)
O=c1ccc2ncc(=O)n3c2n1C[C@H]3CN1CCC(NCc2cc3c(cn2)OCCC3)CC1 [GEPOTIDACIN]		2 µg/mL (≈ 4.46 µM)		0.25 µg/mL (≈ 0.557 µM)		
